Source: publication PMC9025336 (Antibiotics, 2022)
≈ marks a conversion by molar mass, not a printed value. Each block holds one molecule with its values, some of them ahead of it. Square brackets hold non-standard residues; d marks the D form. Ends that are not written are not given here. Peptide text beside a SMILES is read from it.

Columns and labels:
E. coli BW25113 = type: cell-based, Escherichia coli; conditions: BW25113, 2 h
Description: The minimal inhibitory concentrations (MIC) were determined at least twice in triplicate using a liquid broth microdilution assay in sterile 96-well plates and a total volume of 100 μL per well. Aqueous peptide solutions were serially 2-fold diluted in 25% MHBII or 33% TSB medium in a volume of 50 µL. An overnight culture was diluted in 25% MHBII or 33% TSB medium to 1.5 × 10^7 CFU/mL, and an aliquot of 50 μL was added to each well. The final cell count in each well was 7.5 × 10^6 CFU/mL. […] The turbidity of each well was measured at a wavelength of 600 nm. The MIC was defined as the lowest peptide concentration where the turbidity was identical to medium only.

[1] = system: E. coli Rosetta DE3 pLysS; assay: MIC, liquid broth microdilution; type: cell-based, Escherichia coli; conditions: 25% MHBII medium, 7.5 × 10^6 CFU/mL, 37 °C, 20 ± 2 h, turbidity 600 nm, at least twice in triplicate
Description: The minimal inhibitory concentrations (MIC) were determined at least twice in triplicate using a liquid broth microdilution assay in sterile 96-well plates and a total volume of 100 μL per well. Aqueous peptide solutions were serially 2-fold diluted in 25% MHBII or 33% TSB medium in a volume of 50 µL. An overnight culture was diluted in 25% MHBII or 33% TSB medium to 1.5 × 10^7 CFU/mL, and an aliquot of 50 μL was added to each well. The final cell count in each well was 7.5 × 10^6 CFU/mL. The plates were incubated at 37 °C for 20 ± 2 h. The turbidity of each well was measured at a wavelength of 600 nm. The MIC was defined as the lowest peptide concentration where the turbidity was identical to medium only.

[2] = target: BW25113 ribosome extract, ribosomal binding site of Api137; assay: Fluorescence polarization competition against cf-Api137 (Ki); design: species or system Escherichia coli; conditions: unlabeled PrAMP against cf-labeled Api137, calculated from IC50, 95% confidence interval in brackets
Description: (§1) E. coli BW25113 and E. coli Rosetta pLysS were cultivated in LB medium and harvested at an OD600 of ~4 by centrifugation (5000× g, 30 min, 4 °C). The cell pellets were washed by resuspension in ribosome preparation buffer (20 mmol/L Hepes-KOH, 6 mmol/L MgCl2, 30 mmol/L NH4Cl, pH 7.6, 4°C) and subsequent centrifugation (5000× g, 30 min, 4 °C). Cell pellets were suspended in ribosome preparation buffer ([…]) containing freshly added 2-mercapotethanol (4 mmol/L). Lysozyme was added to the resuspended cells and incubated on ice for 30 min. The cell suspension was disrupted six times using a FastPrep-24^TM 5G instrument (MP Biomedicals, Solon, OH, USA) with BigPrep 50 mL setting (40 s, 4.0 m/s), incubated with DNase I (5 mL/L) on ice for one hour and centrifuged (16,000× g, 30 min, 4 °C). The cell debris was removed from the supernatant by centrifugation (32,000× g, 60 min, 4 °C), and the supernatant was centrifuged again (165,000× g, 17 h, 4 °C). The pellet was resuspended in ribosome preparation buffer (0.1 mL per g cell pellet) to obtain the 70S ribosome extract and stored at −80 °C. The ribosome concentration was estimated by recording the absorbance at 260 nm (1 AU for a ribosome concentration of 28 nmol/L). The molecular weight of the 70S E. coli ribosome was assumed to be 2.3 MDa.
(§2) Ki was determined for ribosome extracts using cf-labeled and unlabeled peptides in ribosome preparation buffer. Black 384-well plates were prepared as described above. Unlabeled peptides or antibiotics (20 µL, 656 µmol/L) were added and 2-fold serially diluted in 23 wells in ribosome preparation buffer. A ribosome solution was prepared by adjusting the ribosome concentration to ~90% of the upper Kd plateau obtained for the cf-labeled peptide to be studied and added to each well (10 µL). […] The fluorescence polarization was measured on a PARADIGMTM microplate reader in the top read position (λexc = 485 nm, λem = 535 nm) in triplicate on at least two different days. […] Inhibition constants, Ki, were calculated as described by Mathias and Jung.

[3] = target: BW25113 ribosome extract, ribosomal binding site of Onc112; assay: Fluorescence polarization competition against cf-Onc112 (Ki); design: species or system Escherichia coli; conditions: unlabeled PrAMP against cf-labeled Onc112, calculated from IC50, 95% confidence interval in brackets
Description: as §1, §2

[4] = system: 70S ribosome extract of E. coli BW25113; assay: Fluorescence polarization, Kd of cf-labeled peptides; type: binding, Escherichia coli
Description: as §1
(§3) Kd was determined using a ribosome extract and cf-labeled peptides in ribosome preparation buffer. Briefly, black 384-well plates (flat bottom, Greiner Bio-One GmbH) were blocked with casein (0.5%, w/v) in phosphate buffer containing 0.05% (v/v) Tween 20 at 4 °C overnight and washed three times with phosphate buffer. A 2-fold dilution series of the ribosome extract (20 μL per well) in ribosome preparation buffer was prepared in a black 384-well plate (23 dilution steps). The cf-labeled peptide was dissolved in ribosome preparation buffer (20 μL, 40 nmol/L), added to each well, and incubated at 28 ± 1 °C. After 90 min, the fluorescence polarization was measured on a PARADIGMTM microplate reader (Beckman Coulter, Salzburg, Austria) in the top read position (λexc = 485 nm, λem = 535 nm) in triplicate on at least two different days. Data were fitted to a nonlinear, dose–response logistical transition equation [y= y0 + a/(1 + (x/x0)b)] using the Levenberg–Marquardt algorithm, with dissociation constants (Kd) represented by the x0 coefficients (GraphPad Prism for Windows v. 5.02, San Diego, CA, USA).

[5] = system: 70S ribosome extract of E. coli Rosetta DE3 pLysS; assay: as above; type: binding, Escherichia coli; conditions: determined for the cf-labeled peptide, 28 °C, 90 min, 95% confidence interval in brackets, triplicate on at least two days, read-out: Kd, Ros
Description: as §1, §3

[6] = system: 70S ribosome, ribosomal binding site of Api805; assay: Fluorescence polarization competition with cf-Api805; design: species or system Escherichia coli; conditions: Figure S2, twice in triplicate
Description: Ki was determined for ribosome extracts using cf-labeled and unlabeled peptides in ribosome preparation buffer. Black 384-well plates were prepared as described above. Unlabeled peptides or antibiotics (20 μL, 656 μmol/L) were added and 2-fold serially diluted in 23 wells in ribosome preparation buffer. […] The fluorescence polarization was measured on a […] microplate reader in the top read position (λexc = 485 nm, λem = 535 nm) in triplicate on at least two different days. […] Inhibition constants, Ki, were calculated as described by Mathias and Jung. page 9: 140 140 120 120 100 100 80 80 60 60 40 40 […]. […]. […] 0 0 -20 -20 10 -2 1 10 2 10 4 10 6 10 -2 1 10 2 10 4 10 6 Pept ide Concent r at ion [ nM] Pept ide Concent r at ion [ nM] 140 140 120 120 100 100 80 80 60 60 40 40 20 Chlor […] ol vs. […] -20 -20 10 -2 1 10 2 10 4 10 6 10 -2 1 10 2 10 4 10 6 Ant ibiot ic Concent r at ion [ nM] Antibiotic Concentration [nM] 140 120 100 80 60 40 […] -20 10 -2 1 10 2 10 4 10 6 Ant ibiot ic Concent r at ion [ nM] Figure S2. […] tested as control in competition with Api137 or erythromycin. Experiments were done twice in triplicates. Error bars show the standard deviation of all six replicates. The horizontal dotted line separates positive and negative ranges on the Y-axis. - S9 - (also on this page, place not known: […]

[7] = target: 70S ribosome extract of E. coli Rosetta DE3 pLysS (E. coli Rosetta DE3 pLysS (endogenous)); assay: fluorescence polarisation; 2-fold dilution series of the ribosome extract (23 steps) mixed with cf-labeled peptide (20 µL, 40 nmol/L) in ribosome preparation buffer (20 mmol/L Hepes-KOH, 6 mmol/L MgCl2, 30 mmol/L NH4Cl, pH 7.6); 28 ± 1 °C, 90 min; Kd = x0 of a dose-response fit
[8] = target: 70S ribosome extract of E. coli BW25113 (E. coli BW25113 (endogenous)); assay: as above
[9] = target: 70S ribosome extract of E. coli BW25113 (E. coli BW25113 (endogenous)); assay: fluorescence polarisation; competition: unlabeled peptide (2-fold series from 656 µmol/L) pre-incubated with BW25113 ribosome extract (28 °C, 90 min), then cf-Api137 (10 µL, 80 nmol/L) added (28 °C, 90 min); ribosome preparation buffer; Ki calculated from IC50
[10] = target: 70S ribosome extract of E. coli BW25113 (E. coli BW25113 (endogenous)); assay: fluorescence polarisation; competition: unlabeled peptide (2-fold series from 656 µmol/L) pre-incubated with BW25113 ribosome extract (28 °C, 90 min), then cf-Onc112 (10 µL, 80 nmol/L) added (28 °C, 90 min); ribosome preparation buffer; Ki calculated from IC50

Molecule: CC[C@H](C)[C@H](NC(=O)[C@@H](CCCNC(=N)N)NC(=O)[C@H](CCCNC(=N)N)NC(=O)[C@@H]1CCCN1C(=O)[C@@H]1CCCN1C(=O)[C@H](CCCNC(=N)N)NC(=O)[C@@H]1CCCN1C(=O)[C@H](CCCNC(=N)N)NC(=O)[C@@H]1CCCN1C(=O)[C@H](CC(C)C)NC(=O)[C@H](Cc1ccc(O)cc1)NC(=O)[C@@H]1CCCN1C(=O)[C@@H]1CCCN1C(=O)[C@H](CCCCN)NC(=O)[C@H](CC(=O)O)NC(=O)[C@@H](N)C(C)C)C(=O)N[C@@H](Cc1ccc(O)cc1)C(=O)N[C@@H](CC(N)=O)C(=O)N[C@H](CCCNC(=N)N)C(N)=O [Onc112] (H-VDKPPYLPRPRPPR[dR]IYN[dR]-NH2)
MIC, BW (E. coli BW25113): 4 µg/mL (≈ 1.67 µM)
MIC, Ros [1]: 4 µg/mL (≈ 1.67 µM)
Ki [2]: 606 nM
Ki [3]: 8 nM
Kd ([4]; determined for the cf-labeled peptide, BW25113 ribosome extract, 28 °C, 90 min, 95% confidence interval in brackets, triplicate on at least two days, read-out: Kd, BW): 27 nM
Kd [5]: 51 nM

Molecule: CC[C@H]1OC(=O)[C@H](C)[C@@H](O[C@H]2C[C@@](C)(OC)[C@@H](O)[C@H](C)O2)[C@H](C)[C@@H](O[C@@H]2O[C@H](C)C[C@H](N(C)C)[C@H]2O)[C@](C)(O)C[C@@H](C)C(=O)[C@H](C)[C@@H](O)[C@]1(C)O [erythromycin]
inhibition of the binding of cf-labeled Api805 [6]: none inhibited

Molecule: CC[C@H](C)[C@H](NC(=O)[C@@H]1CCCN1C(=O)[C@H](CCCNC(=N)N)NC(=O)[C@H](CC(N)=O)NC(=O)[C@H](CC(N)=O)NC(=O)CN)C(=O)N[C@@H](Cc1ccc(O)cc1)C(=O)N[C@H](C(=O)N1CCC[C@H]1C(=O)N[C@@H](CCCNC(=N)N)C(=O)N1CCC[C@H]1C(=O)N[C@@H](CCCNC(=N)N)C(=O)N1CCC[C@H]1C(=O)N1CCC[C@H]1C(=O)N[C@@H](Cc1c[nH]cn1)C(=O)N1CCC[C@H]1C(=O)N[C@@H](CCCNC(=N)N)C(=O)N[C@@H](CC(C)C)C(=O)O)[C@@H](C)CC [Api801] (H-GNNRPIYIPRPRPPHPRL-OH)
MIC, BW (E. coli BW25113): 16 µg/mL (≈ 7.44 µM)
MIC, Ros [1]: 4 µg/mL (≈ 1.86 µM)

Kd [7]: 198 nM
Kd [8]: 382 nM
Molecule: cf-Api137 (peptide)

Molecule: O=C(N[C@H](CO)[C@H](O)c1ccc([N+](=O)[O-])cc1)C(Cl)Cl [chloramphenicol]
inhibition of the binding of cf-labeled Api805 [6]: none inhibited

inhibition of the binding of cf-labeled Api805 [6]: none inhibited
Molecule: NC[C@H]1O[C@H](O[C@H]2[C@H](O)[C@@H](O[C@H]3O[C@H](CO)[C@@H](O)[C@H](N)[C@H]3O)[C@H](N)C[C@@H]2N)[C@H](O)[C@@H](O)[C@@H]1O [kanamycin]

Kd [8]: 906 nM
Molecule: cf-Api88 (peptide)

Molecule: cf-Api805: Api805 labeled with 5(6)-carboxyfluorescein at the N-terminus ({5(6)‑carboxyfluorescein}-GNNRPIYIPRPRPPHPRPIRV-OH)
Kd values of cf-labeled peptides, in words ([4]; 70S ribosome, refers to Table 2): nanomolar range

Kd [7]: 51 nM
Kd [8]: 27 nM
Molecule: {5(6)‑carboxyfluorescein}-VDKPPYLPRPRPPR[dR]IYN[dR]-NH2 [cf-Onc112]

Ki [9]: 606 nM
Ki [10]: 8 nM
Molecule: VDKPPYLPRPRPPR[dR]IYN[dR]-NH2 [Onc112]

Kd [7]: 515 nM
Kd [8]: 557 nM
Molecule: {5(6)‑carboxyfluorescein}-GNNRPIYIPRPRPPHPRPIRV-OH [cf-Api805]

Ki [9]: 2 nM
Ki [10]: 247 nM
Molecule: GNNRPIYIPRPRPPHPRL-OH [Api801]
